Experiments:
[1] = target: T1, Muscarinic acetylcholine receptor M1 (Homo sapiens, UniProt P11229); assay type: functional, cell-based
T1 sequence (P11229 whole entry): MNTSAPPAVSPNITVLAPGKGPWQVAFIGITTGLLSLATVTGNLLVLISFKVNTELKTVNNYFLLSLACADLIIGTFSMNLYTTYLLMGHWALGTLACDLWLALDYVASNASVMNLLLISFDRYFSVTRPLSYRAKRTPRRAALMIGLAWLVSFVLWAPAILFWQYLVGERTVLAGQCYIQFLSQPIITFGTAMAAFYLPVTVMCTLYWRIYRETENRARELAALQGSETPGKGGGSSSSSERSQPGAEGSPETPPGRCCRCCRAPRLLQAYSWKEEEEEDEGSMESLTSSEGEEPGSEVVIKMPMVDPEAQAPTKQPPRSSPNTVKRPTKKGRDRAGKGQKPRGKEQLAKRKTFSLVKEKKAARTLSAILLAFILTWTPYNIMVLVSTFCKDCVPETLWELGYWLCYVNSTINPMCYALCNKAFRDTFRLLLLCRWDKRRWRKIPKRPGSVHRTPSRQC

[2] = target: T2, Muscarinic acetylcholine receptor M2 (Homo sapiens, UniProt P08172); assay type: functional, cell-based
T2 sequence (P08172 whole entry): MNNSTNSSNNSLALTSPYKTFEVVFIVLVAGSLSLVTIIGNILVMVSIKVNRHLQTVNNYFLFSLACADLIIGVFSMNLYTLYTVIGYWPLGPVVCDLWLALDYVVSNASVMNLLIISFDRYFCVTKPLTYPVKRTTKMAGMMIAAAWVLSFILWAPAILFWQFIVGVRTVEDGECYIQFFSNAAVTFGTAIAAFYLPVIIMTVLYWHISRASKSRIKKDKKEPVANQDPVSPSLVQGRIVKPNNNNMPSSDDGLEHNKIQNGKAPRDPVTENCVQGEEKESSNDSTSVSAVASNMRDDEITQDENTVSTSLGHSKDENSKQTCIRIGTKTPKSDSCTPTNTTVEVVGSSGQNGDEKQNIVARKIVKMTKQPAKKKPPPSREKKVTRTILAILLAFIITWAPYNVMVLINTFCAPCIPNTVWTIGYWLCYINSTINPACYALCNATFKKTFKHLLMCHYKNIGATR

Cannabinoid receptor 1 = Cannabinoid receptor 1 (Homo sapiens, UniProt P21554); assay type: functional, cell-based
Cannabinoid receptor 1, sequence (P21554 whole entry): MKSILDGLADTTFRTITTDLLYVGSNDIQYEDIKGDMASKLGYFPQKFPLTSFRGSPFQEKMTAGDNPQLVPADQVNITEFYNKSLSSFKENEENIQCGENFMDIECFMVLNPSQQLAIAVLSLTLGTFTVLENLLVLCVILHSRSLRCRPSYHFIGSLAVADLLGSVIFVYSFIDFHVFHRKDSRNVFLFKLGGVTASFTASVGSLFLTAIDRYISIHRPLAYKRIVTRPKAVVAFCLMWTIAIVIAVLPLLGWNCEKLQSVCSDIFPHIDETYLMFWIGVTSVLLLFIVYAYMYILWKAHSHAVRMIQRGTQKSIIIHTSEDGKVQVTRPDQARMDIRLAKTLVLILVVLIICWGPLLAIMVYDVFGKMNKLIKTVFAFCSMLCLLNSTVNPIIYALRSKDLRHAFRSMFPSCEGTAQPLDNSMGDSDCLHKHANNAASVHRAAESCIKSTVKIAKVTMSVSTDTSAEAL

[3] = target: T3, Type-1 angiotensin II receptor (Homo sapiens, UniProt P30556)
T3 sequence (P30556 whole entry): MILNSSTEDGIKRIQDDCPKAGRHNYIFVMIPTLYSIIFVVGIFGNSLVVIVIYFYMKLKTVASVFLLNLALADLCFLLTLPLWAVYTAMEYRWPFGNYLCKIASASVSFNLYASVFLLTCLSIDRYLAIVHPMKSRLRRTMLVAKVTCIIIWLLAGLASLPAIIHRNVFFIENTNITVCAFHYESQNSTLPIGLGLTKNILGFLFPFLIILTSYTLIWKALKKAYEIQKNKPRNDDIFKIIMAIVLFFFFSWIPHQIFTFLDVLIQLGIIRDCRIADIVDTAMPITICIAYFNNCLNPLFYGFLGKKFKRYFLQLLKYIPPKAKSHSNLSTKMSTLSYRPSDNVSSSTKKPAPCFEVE

[4] = target: T4, Prostaglandin G/H synthase 1 (Rattus norvegicus, UniProt Q63921); assay type: functional
T4 sequence (Q63921 whole entry): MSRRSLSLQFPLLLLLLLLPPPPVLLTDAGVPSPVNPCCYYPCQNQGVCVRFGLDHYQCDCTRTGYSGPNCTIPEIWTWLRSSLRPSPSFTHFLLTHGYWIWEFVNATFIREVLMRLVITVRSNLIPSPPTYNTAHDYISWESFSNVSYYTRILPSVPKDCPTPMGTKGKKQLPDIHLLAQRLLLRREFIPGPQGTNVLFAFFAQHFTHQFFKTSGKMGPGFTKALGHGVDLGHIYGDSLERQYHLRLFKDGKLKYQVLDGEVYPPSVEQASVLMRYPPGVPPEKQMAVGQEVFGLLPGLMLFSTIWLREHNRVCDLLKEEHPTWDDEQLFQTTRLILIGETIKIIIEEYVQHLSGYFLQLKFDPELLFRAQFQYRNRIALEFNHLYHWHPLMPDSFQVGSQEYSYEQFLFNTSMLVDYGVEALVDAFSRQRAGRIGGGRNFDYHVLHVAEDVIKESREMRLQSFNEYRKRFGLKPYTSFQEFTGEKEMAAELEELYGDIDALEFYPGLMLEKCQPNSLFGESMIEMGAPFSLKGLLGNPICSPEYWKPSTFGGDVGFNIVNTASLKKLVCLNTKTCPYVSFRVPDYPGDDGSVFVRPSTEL

Mu-type opioid receptor = Mu-type opioid receptor (Homo sapiens, UniProt P35372)
Mu-type opioid receptor, sequence (P35372 whole entry): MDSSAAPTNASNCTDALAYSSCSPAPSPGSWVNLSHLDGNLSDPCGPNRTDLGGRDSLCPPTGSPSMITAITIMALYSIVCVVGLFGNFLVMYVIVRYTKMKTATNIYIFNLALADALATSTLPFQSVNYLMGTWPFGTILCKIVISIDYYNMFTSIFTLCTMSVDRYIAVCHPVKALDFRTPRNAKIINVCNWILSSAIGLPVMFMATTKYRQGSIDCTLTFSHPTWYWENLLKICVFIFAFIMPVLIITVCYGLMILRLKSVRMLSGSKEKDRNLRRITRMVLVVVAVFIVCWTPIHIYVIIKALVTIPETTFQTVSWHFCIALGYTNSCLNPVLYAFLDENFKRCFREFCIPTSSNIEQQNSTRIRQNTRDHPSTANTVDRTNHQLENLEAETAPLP

Progesterone receptor = target: T5, Progesterone receptor (Homo sapiens, UniProt P06401); assay type: functional
T5 sequence (P06401 whole entry): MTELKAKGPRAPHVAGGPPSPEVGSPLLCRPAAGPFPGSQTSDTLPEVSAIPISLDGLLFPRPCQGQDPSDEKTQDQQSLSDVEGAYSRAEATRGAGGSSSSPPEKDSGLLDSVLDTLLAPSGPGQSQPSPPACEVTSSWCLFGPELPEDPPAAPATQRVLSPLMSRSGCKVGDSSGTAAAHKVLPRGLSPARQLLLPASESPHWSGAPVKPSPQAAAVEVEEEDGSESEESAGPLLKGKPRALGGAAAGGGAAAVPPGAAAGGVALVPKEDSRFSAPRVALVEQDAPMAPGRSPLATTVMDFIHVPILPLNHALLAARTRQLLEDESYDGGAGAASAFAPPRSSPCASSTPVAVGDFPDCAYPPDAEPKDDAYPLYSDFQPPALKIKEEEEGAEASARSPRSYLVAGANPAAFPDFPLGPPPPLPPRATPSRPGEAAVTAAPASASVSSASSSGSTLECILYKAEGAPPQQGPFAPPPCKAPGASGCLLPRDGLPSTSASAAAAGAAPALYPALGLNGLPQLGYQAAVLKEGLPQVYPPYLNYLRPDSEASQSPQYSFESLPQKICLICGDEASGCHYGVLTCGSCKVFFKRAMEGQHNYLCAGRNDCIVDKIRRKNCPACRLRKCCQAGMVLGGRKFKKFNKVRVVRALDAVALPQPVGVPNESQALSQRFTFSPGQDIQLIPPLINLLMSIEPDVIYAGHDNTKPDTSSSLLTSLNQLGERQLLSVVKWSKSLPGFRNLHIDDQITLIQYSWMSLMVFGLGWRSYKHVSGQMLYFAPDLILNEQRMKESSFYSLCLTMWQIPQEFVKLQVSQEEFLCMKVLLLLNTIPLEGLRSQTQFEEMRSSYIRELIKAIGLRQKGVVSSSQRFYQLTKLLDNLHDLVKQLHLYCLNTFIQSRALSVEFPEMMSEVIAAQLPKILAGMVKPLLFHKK
Also: assay procedure not described here.

## C[N+](C)(C)CCOP(=O)(O)OP(=O)([O-])OC[C@H]1O[C@@H](n2ccc(N)nc2=O)[C@H](O)[C@@H]1O [CITICOLINE]
[1]
  AC50: > 30 µM
[2]
  AC50: > 30 µM
Cannabinoid receptor 1
  AC50: > 30 µM

## O=C(O)Cc1ccccc1Oc1ccc(Cl)cc1Cl [FENCLOFENAC]
[3]
  AC50: > 30 µM
[1]
  AC50: 23.6 µM
[2]
  AC50: > 10 µM
Cannabinoid receptor 1
  AC50: > 30 µM
[4]
  AC50: > 30 µM
Mu-type opioid receptor
  AC50: > 30 µM

## COc1ccccc1OC1(C)OC(=O)c2ccccc2O1 (centres undefined) [GUAIMESAL]
[3]
  AC50: > 30 µM
[1]
  AC50: > 30 µM
Progesterone receptor
  AC50: > 30 µM

## COc1cc(C(C)=O)ccc1OCCCN1CCC(c2noc3cc(F)ccc23)CC1 [ILOPERIDONE]
[3]
  AC50: > 30 µM
[1]
  AC50: > 10 µM
[2]
  AC50: > 30 µM
Cannabinoid receptor 1
  AC50: > 30 µM
Progesterone receptor
  AC50: > 30 µM
[4]
  AC50: > 30 µM
Mu-type opioid receptor
  AC50: 10 µM

## C[Se]CC[C@H](N)C(=O)O [SELENOMETHIONINE]
[1]
  AC50: > 30 µM

## Cc1ccsc1C(=CCCN1CCC[C@@H](C(=O)O)C1)c1sccc1C [TIAGABINE]
[1]
  AC50: > 30 µM

## Cc1ccccc1C(=O)Nc1ccc(C(=O)N2CCCC(O)c3cc(Cl)ccc32)c(C)c1 (centres undefined) [TOLVAPTAN]
[1]
  AC50: 11.3 µM

## CC[C@]12CCCN3CCc4c(n(c5ccccc45)[C@@](O)(C(=O)OC)C1)[C@@H]32 [VINCAMINE]
[1]
  AC50: > 30 µM

## O=C1Cc2cc(CCN3CCN(c4nsc5ccccc45)CC3)c(Cl)cc2N1 [ZIPRASIDONE]
[3]
  AC50: > 30 µM
[1]
  AC50: 12.9 µM
[2]
  AC50: > 10 µM
Cannabinoid receptor 1
  AC50: > 30 µM
[4]
  AC50: > 30 µM
Mu-type opioid receptor
  AC50: > 30 µM
